Data set [1] deals with CHO pLDLR-Luciferase cells. The data set can be described thus: Luciferase assay (LDLR promoter-luciferase reporter in CHO cells). Also on record: Emax: unit not given here. The conditions noted are these: 48 hours after treatment; for EC50: Cricetulus griseus. It is filed as cell-based, Chinese Hamster. As to the method: Chinese Hamster Ovary (CHO) cells cultivated in 2×75 […] conical flasks had their media removed and washed in 5 mL of PBS before 2 mL of Trypsin was added. The cells were swirled for a minute, before being placed in the 37° C. incubator for 5 min. The conical flasks were tapped to remove cells from the bottom, and aspirated out into 2×13 mL of Ham F-12 media containing 10% FBS and 1% L-Glutamine. The cells were then spun down at 1000 rpm for 5 min. The media was aspirated off, and the pellet from each of the two flasks was resuspended in 5 mL of media. The cells were counted, plated into a 24-well plate to give 1.5×10^5 cells/well in 500 μL of media, and placed in the 37° C. incubator. 2 mL of the remaining cells was added to 38 mL of media, plated 20 mL each into 2×75 cm^2 conical flasks, and placed in the 37° C. incubator.
After 24 h, the media was aspirated out and replaced with 500 μL Lipoprotein Deficient Serum (LPDS) media. The plate was then returned to the incubator for a further 24 h.
Following this incubation, the compound to be tested was dissolved in DMSO to give a concentration of 1 mg/mL. An appropriate amount of this solution was then added to FPS media to give 5 mL at a concentration of 10 μM. Serial dilution then gave the other required concentrations, to give testing concentrations of 0.1 nM, 1 nM, 10 nM, 30 nM, 100 nM, 1 μM and 10 μM. A 1 μM compound 49 positive control was also prepared from a stock solution in DMSO, and 0.1% DMSO control was also prepared as a negative control. Each well was then treated with 500 μL of each solution, according to the plate map shown below, and the plates were placed in the incubator.
48 hours after treatment, the cell media was aspirated and cells were washed with 500 μL of PBS. 100 μL of luciferase lysis buffer (12.5 mL 1M TrisPO4 pH 7.8, 5 mL 0.2M CDTA solution, 50 mL glycerol, 5 mL Triton-X 100, 427.5 mL H2O) was added to each sample; samples were shaken for 20 min at 4° C. before being pipetted up and down, then the plate was spun at 4500 rpm for 5 min. 75 μL of lysate was pippetted into a 96-well plate. The plate was then run on a Dynex Technologies MLX 96 Well Plate Luminometer using revalation software. 100 µL of luciferase assay buffer solution and 50 μL of Luciferin solution (200 μL Luciferin 10X, 1800 μL H2O) was dispensed each time. Response was recorded in Relative Light Units (RLUs), normalised to standards from a bicinchoninic acid (BCA) assay.
Prepared using 3 mL luciferase assay buffer (7.5 mL 1M MgSO4, 7.5 mL 1M TrisPO4 pH 7.8 buffer, 20 mL 0.1M EGTA pH 7.8, 465 mL H2O), added to 60 μL of 100 mM ATP and 6 μL of 1 M DTT solution.

In a further data set the target is T1, Squalene Synthase (Homo sapiens, UniProt P37268).
T1 construct: 12 μg human liver microsomes; from tissue; host or cells: human liver microsomes
T1 sequence (P37268 1-417): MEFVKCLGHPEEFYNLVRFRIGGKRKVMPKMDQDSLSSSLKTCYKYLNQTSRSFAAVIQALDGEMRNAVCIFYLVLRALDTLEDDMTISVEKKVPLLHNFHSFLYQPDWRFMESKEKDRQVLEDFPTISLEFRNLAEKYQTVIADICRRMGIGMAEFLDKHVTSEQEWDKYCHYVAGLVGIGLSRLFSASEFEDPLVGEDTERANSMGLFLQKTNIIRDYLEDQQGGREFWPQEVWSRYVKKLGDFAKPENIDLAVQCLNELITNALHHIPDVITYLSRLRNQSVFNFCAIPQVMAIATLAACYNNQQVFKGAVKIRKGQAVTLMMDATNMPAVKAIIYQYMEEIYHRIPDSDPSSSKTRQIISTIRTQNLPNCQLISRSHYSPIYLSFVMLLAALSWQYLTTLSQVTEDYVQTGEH
The experiment in a line: Squalene Synthase activity assay in human liver microsomes with [1-3H]FPP. In kind it is biochemical. As to conditions: FIG. 1b. The protocol: Squalene Synthase activity assays were performed in 1 mL reactions containing 50 mM phosphate buffer (pH 7.4, 10 mM MgCl2), 12 μg human liver microsomes, [1-^3H]FPP (0.045 Ci/mmol) and 0.5 mM NADPH. Enzyme and inhibitors were incubated for 10 minutes at 37° C. Substrate was then added and reaction was incubated for 10 min at 37° C. Reaction was stopped by adding 1 mL of 15% KOH in ethanol and incubated at 65° C. for 30 minutes. 5 mL of petroleum ether was added and reaction was shaken for 10 minutes at room temperature. The lower aqueous phase was frozen and the upper organic phase transferred to fresh glass tubes containing 2 mL distilled water. 1.5 mL of the organic phase was transferred to a scintillation vial containing liquid scintillation fluid, and radioactivity was quantitated using a Beckman liquid scintillation counter. Data was analyzed using Prism Graphpad software.
As a representative example, compound 40 (Example 15; JM-086) was tested for squalene synthase inhibitory properties alongside compound 15a (Example 1), and the known squalene synthase inhibitor, YM-53601, as a positive control.
A general note: Liver microsomes are vesicles of endoplasmic reticulum, rich in cytochrome P450 enzymes.

Data set [2] deals with CHO pLDLR-Luciferase cells. The data set can be described thus: Combination therapy experiments, luciferase compound screen with simvastatin. It is filed as cell-based, Chinese Hamster. The conditions noted are these: Cricetulus griseus; single agent, CHO-pLDLR-Luc, FIG. 3a/3b; read-out: EC50, increase in levels of luciferase. The protocol: As described above, CHO WT cells transfected with pLDLR-Luc (CHO-pLDLR-Luc) were grown in HamsF-12(Sigma N4888) medium supplemented with 10% fetal bovine serum (FBS), 1% penicillin/streptomycin, 1% L-glutamine, in a 5% CO2 incubator at 37° C. CHO-pLDLR-Luc were seeded in 24-well plates at 1.5×10^5 per well. After 24h cells were changed to HamsF-12(Sigma N4888) supplemented with 10% lipoprotein deficient serum (LDPS), 1% penicillin/streptomycin, 1% L-glutamine. Compounds and simvastatin (Sigma S6196) dissolved in DMSO and Cholesterol(Sigma C8667) and 25-Hydroxycholesterol(Sigma H1015) dissolved in ethanol were added 24 h after serum starvation.
Simvastatin and compound 40 (Example 15; JM-086) were added together. The compounds were added at the exact same time, with the EC50 of either compound 40 (JM-086) or Simvastatin added into the media containing increasing doses of either compound 40 (JM-086) or Simvastatin then being added to the CHO pLDLR-Luciferase cells.

As a reminder, the EC50 is the concentration at which the effect is half-maximal. For the compound `COc1ccc(/C=C/c2ccccc2)cc1` [Compound 65, (E)-1-methoxy-4-styrylbenzene], in data set [1], the Emax came out at 6 and a half-maximal response (EC50) required 50 nM.

As a reminder, the melting point is the temperature of the solid-liquid transition. As to `COc1ccc(/C=C/c2ccc(OCCCN(C)C)cc2)cc1` [Compound 44a, (E)-3-(4-(4-methoxystyryl)phenoxy)-N,N-dimethylpropan-1-amine], the melting point lay in the range of 138 to 140 °C. In data set [1], this compound had an Emax of 30 and an EC50 of 260 nM.

`CN(C)CCCOc1ccc(/C=C/c2ccc(F)cc2)cc1` [Compound 46a, (E)-3-(4-(4-fluorostyryl)phenoxy)-N,N-dimethylpropan-1-amine] returned a melting point of 128.8 to 129.9 °C. Also, in data set [1], the Emax stood at 24 and the EC50 came to 2000 nM.

`CC(C)CCCOc1ccc(/C=C/c2ccccc2)cc1` [Compound 39, (E)-1-((4-methylpentyl)oxy)-4-styrylbenzene] had a melting point of 97 to 98 °C. In addition, in data set [1], the Emax is 8 and it took 1000 nM to reach a half-maximal effect (EC50).

`COCCCOc1ccc(/C=C/c2ccccc2)cc1` [Compound 41, (E)-1-(3-methoxypropoxy)-4-styrylbenzene] gave a melting point of 77.8 to 81 °C. For the same compound, in data set [1], the Emax amounted to 44 and the EC50 turned out to be 1500 nM.

In turn, `CNCCCOc1ccc(/C=C/c2ccccc2)cc1` [Compound 69, (E)-N-methyl-3-(4-styrylphenoxy)propan-1-amine] came in with a melting point of 84.2 to 87.7 °C. For the same compound, in data set [1], the Emax turned out to be 8 and the EC50 came to 320 nM.

`CN(C)CCCOc1ccc(/C=C/c2ccccc2)cc1` [Compound 15a, (E)-N,N-dimethyl-3-(4-styrylphenoxy)propan-1-amine] came in with a melting point of 75 to 77 °C. In data set [1], this compound displayed an Emax of 5 and an EC50 of 39 nM. Further, the squalene synthase inhibition result on Squalene Synthase is listed as “dose-dependent activity”.

Take `CN(C)CCCOc1ccc(/C=C/c2ccccc2)cc1F` [Compound 62, (E)-3-(2-fluoro-4-styrylphenoxy)-N,N-dimethylpropan-1-amine]: the melting point fell in the range of 68.2 to 72.6 °C. In data set [1], this compound came in with an Emax of 15 and an EC50 of 3000 nM.

The compound `CN(C)CCCOc1ccc(/C=C/c2ccc([N+](=O)[O-])cc2)cc1` [Compound 47a, (E)-N,N-dimethyl-3-(4-(4-nitrostyryl)phenoxy)propan-1-amine] had a melting point of 85.2 to 85.9 °C. In data set [1], this compound gave an Emax of 39 and an EC50 of 3000 nM.

As to `CCC(C)(C)C(=O)O[C@H]1C[C@@H](C)C=C2C=C[C@H](C)[C@H](CC[C@@H]3C[C@@H](O)CC(=O)O3)[C@H]21` [Simvastatin, reference compound], the EC50 in data set [2] was determined as 128 nM.

As to `OCCCOc1ccc(/C=C/c2ccccc2)cc1` [Compound 40, (E)-3-(4-styrylphenoxy)propan-1-ol], in data set [1], the Emax was found to be 32 and a half-maximal response (EC50) required 35 nM. Also, at Squalene Synthase, the squalene synthase inhibition result was “dose-dependent activity”. Besides, in data set [2], the EC50 came to 31.5 nM.

`CN(C)CCCOc1ccc(/C=C/c2cccc(F)c2)cc1` [Compound 46b, (E)-3-(4-(3-fluorostyryl)phenoxy)-N,N-dimethylpropan-1-amine]: the melting point was 56.2 to 58.6 °C. In data set [1], this compound had an Emax of 9 and an EC50 of 1500 nM.

The compound `COc1cccc(/C=C/c2ccc(OCCCN(C)C)cc2)c1` [Compound 44b, (E)-3-(4-(3-methoxystyryl)phenoxy)-N,N-dimethylpropan-1-amine] returned a melting point of 28 to 32 °C. In data set [1], this compound displayed an Emax of 9 and an EC50 of 2500 nM.

As to `CN(C)CCCOc1ccc(/C=C/c2ccccc2[N+](=O)[O-])cc1` [Compound 47c, (E)-N,N-dimethyl-3-(4-(2-nitrostyryl)phenoxy)propan-1-amine], the melting point fell in the range of 51.9 to 57.1 °C. In data set [1], the Emax is listed as 5 and a half-maximal response (EC50) required 3000 nM.

In data set [1], `Oc1ccc(/C=C/c2ccccc2)cc1` [Compound 32, (E)-4-styrylphenol] had an Emax of 34 and a concentration giving a half-maximal response (EC50) of 3000 nM.

`COc1ccccc1/C=C/c1ccc(OCCCN(C)C)cc1` [Compound 44c, (E)-3-(4-(2-methoxystyryl)phenoxy)-N,N-dimethylpropan-1-amine] returned a melting point of 177.6 to 180.9 °C. In data set [1], the Emax came to 8 and the half-maximal effective concentration (EC50) was 310 nM.

The values are drawn from US20170260126A1, “SQUALENE COMPOUNDS AS MODULATORS OF LDL-RECEPTOR EXPRESSION” (OXFORD UNIVERSITY INNOVATION LIMITED, priority 2014, published 2017).
